The target of test [1] is T1, Full length WRN protein (aa 2-1432) (Homo sapiens (Human), UniProt Q14191). Description: WRN ATPase ADP-Glo biochemical assay, Assay Format A (10 μM ATP). The conditions noted are these: 0.25 nM WRN, 100 nM C6.18 ssDNA, 30 min preincubation, read-out: ATPase ADPGlo AC50 (uM)- Assay Format A. Put shortly: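 ADP-Glo luminescence measured hydrolysis of ATP by purified, baculovirus-expressed N-terminally tagged full-length WRN. Enzyme (0.5 nM) was preincubated 30 min with compound, then 200 nM ssDNA C6.18 plus 20 μM ATP were added (pre-mix levels) for 30 min at RT. IC50s come from four-parameter fits, geometric mean of at least two trials.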

The next test deals with HT29 cells. Description: HT29 (MSS) 7 day viability, CellTiter Glo. It counts as cell-based. The conditions noted are these: 7 days, read-out: HT29 (MSS) Viability 7 Day CTGAbs AC50. In a few lines:
(§1)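 HCT116 seeded at 50 cells/well and HT29 at 500 cells/well onto compound plates (10-point 3-fold dilutions from 10 mM DMSO stock), incubated 7 days at 37 °C, 5% CO2.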
(In general: In ATP-based viability assays light output follows the ATP content of the culture.)

For a further test, the system named is HCT116 cells. The experiment in a line: HCT116 (MSI) 7 day viability, CellTiter Glo. Type of test: cell-based. The conditions noted are these: 7 days, read-out: HCT116 (MSI) Viability 7 Day Abs AC50. In a few lines:
as §1

In test [2] the target is T1, Full length WRN protein (aa 2-1432). The experiment in a line: WRN ATPase ADP-Glo biochemical assay, Assay Format B (100 μM ATP). The conditions noted are these: 0.25 nM WRN, 100 nM C6.18 ssDNA, 60 min preincubation, read-out: ATPase ADPGlo AC50 (uM)- Assay Format B. For orientation: In ADP-Glo the light output rises with the ADP produced.

AC50 data for 17 molecules are collected here from US20250346600A1, “TRICYCLIC DERIVATIVES AND RELATED USES” (MOMA Therapeutics, Inc., priority 2023, published 2025).

Read-outs that look alike come from different tables or passages of the source.

In general, AC50 refers to the concentration at which the activity in the assay is half-maximal.

T1 sequence (Q14191 2-1432): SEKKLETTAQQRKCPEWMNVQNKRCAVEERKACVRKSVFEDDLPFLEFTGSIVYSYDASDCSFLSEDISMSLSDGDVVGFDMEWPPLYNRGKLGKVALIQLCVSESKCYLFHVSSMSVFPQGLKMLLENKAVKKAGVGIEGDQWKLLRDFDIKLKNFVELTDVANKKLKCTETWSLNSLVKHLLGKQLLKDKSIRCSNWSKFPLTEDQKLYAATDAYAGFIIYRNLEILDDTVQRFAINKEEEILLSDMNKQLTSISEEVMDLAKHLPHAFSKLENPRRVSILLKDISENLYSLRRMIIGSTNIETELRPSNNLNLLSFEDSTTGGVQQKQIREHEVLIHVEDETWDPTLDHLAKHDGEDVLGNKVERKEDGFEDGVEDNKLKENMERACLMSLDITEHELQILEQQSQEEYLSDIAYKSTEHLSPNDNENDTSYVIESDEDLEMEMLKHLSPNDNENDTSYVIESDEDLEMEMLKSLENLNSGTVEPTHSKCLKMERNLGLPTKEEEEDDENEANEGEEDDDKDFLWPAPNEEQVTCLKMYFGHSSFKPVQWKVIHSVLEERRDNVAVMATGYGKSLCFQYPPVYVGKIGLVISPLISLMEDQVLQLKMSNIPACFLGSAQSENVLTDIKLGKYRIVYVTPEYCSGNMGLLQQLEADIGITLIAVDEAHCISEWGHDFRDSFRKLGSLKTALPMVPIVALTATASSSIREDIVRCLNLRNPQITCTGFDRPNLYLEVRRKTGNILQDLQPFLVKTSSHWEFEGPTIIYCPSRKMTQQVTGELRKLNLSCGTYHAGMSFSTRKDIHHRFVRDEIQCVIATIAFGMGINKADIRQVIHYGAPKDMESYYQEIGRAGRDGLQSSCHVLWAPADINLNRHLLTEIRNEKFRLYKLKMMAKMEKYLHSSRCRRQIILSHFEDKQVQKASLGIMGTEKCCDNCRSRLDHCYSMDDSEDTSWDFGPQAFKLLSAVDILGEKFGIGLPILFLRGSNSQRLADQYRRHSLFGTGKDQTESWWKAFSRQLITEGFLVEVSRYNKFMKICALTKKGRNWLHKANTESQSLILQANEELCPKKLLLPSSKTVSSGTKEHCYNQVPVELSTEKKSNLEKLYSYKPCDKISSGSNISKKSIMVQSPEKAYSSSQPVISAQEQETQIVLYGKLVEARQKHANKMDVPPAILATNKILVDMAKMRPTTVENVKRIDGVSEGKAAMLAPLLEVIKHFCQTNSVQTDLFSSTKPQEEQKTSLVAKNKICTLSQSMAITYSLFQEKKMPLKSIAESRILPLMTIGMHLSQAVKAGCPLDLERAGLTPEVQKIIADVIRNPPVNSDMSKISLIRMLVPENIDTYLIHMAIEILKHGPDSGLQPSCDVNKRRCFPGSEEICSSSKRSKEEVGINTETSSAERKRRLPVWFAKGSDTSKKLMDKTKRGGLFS

On to `C=CC(=O)N1CCc2nc(-c3ccc(C4CCC4)cc3)n3c2C(C1)N(C(=O)c1cnc(C(F)(F)F)c(O)c1)CC3` (centres unmarked) [Compound 86, 1-(2-(4-cyclobutylphenyl)-5-(5-hydroxy-6-(trifluoromethyl)nicotinoyl)-4,5,5a,6,8,9-hexahydro-1,2a,5,7-tetraazabenzo[cd]azulen-7(3H)-yl)prop-2-en-1-one], for which the AC50 in test [1] is less than 0.0015 µM; with HT29 cells (Homo sapiens, HT-29, 168 h), more than 3000 nM; in the test with HCT116 cells (Homo sapiens, HCT-116, 168 h) it was 250 to 500 nM; in test [2] it was 0.015 to 0.055 µM.

For `C=CC(=O)N1CCc2nn(-c3ccc(C45CC(C4)C5)c(F)c3O)c3c2C(C1)N(C(=O)c1cnc(C(F)(F)F)c(O)c1)CC3` (centres unmarked) [Compound 101, 1-(2-(4-(bicyclo[1.1.1]pentan-1-yl)-3-fluoro-2-hydroxyphenyl)-5-(5-hydroxy-6-(trifluoromethyl)nicotinoyl)-2,3,4,5,5a,6,8,9-octahydro-7H-1,2,5,7-tetraazabenzo[cd]azulen-7-yl)prop-2-en-1-one], the AC50 in test [1] is 0.0015 to 0.005 µM; in the test on HT29 cells (Homo sapiens, HT-29, 168 h), more than 3000 nM; in the test on HCT116 cells (Homo sapiens, HCT-116, 168 h) it was 100 to 250 nM; in test [2], 0.015 to 0.055 µM.

As to `C=CC(=O)N1CC(OC2CC3(COC3)C2)c2nn(-c3ccc(C4CCC4)cc3)c3c2C(C1)N(C(=O)c1cnc(C(F)(F)F)cc1N)CC3` (centres unmarked) [Compound 246], the AC50 was less than 0.0015 µM in test [1]; more than 3000 nM in the test on HT29 cells (Homo sapiens, HT-29, 168 h); 1 to 100 nM with HCT116 cells (Homo sapiens, HCT-116, 168 h); 0.005 to 0.015 µM in test [2].

Take `C=CC(=O)N1CCc2nn(-c3ccc(C(C)C)cc3)c3c2C(C1)N(C(=O)c1ccc(Br)c(-c2cc[nH]n2)c1)CC3` (centres unmarked) [Compound 106, 1-(5-(4-bromo-3-(1H-pyrazol-3-yl)benzoyl)-2-(4-isopropylphenyl)-2,3,4,5,5a,6,8,9-octahydro-7H-1,2,5,7-tetraazabenzo[cd]azulen-7-yl)prop-2-en-1-one]: the AC50 in test [1] was 0.0015 to 0.005 µM; with HT29 cells (Homo sapiens, HT-29, 168 h), more than 3000 nM; in the test with HCT116 cells (Homo sapiens, HCT-116, 168 h), 250 to 500 nM; in test [2] it was more than 0.055 µM.

Regarding `C=CC(=O)N1CCc2nn(-c3ccc(C4CCC4)cc3O)c3c2C(C1)N(C(=O)c1ncc(Br)c2[nH]cnc12)CC3` (centres unmarked) [Compound 95, 1-(5-(7-bromo-1H-imidazo[4,5-c]pyridine-4-carbonyl)-2-(4-cyclobutyl-2-hydroxyphenyl)-2,3,4,5,5a,6,8,9-octahydro-7H-1,2,5,7-tetraazabenzo[cd]azulen-7-yl)prop-2-en-1-one], the AC50 was less than 0.0015 µM in test [1]; more than 3000 nM with HT29 cells (Homo sapiens, HT-29, 168 h); 1 to 100 nM with HCT116 cells (Homo sapiens, HCT-116, 168 h); 0.0015 to 0.005 µM in test [2].

Consider `C=CC(=O)N1CCc2nn(-c3ccc(C4CC4)cc3O)c3c2C(C1)N(C(=O)c1cnc(Cl)cc1N)CC3` (centres unmarked) [Compound 196, 1-(5-(4-amino-6-chloronicotinoyl)-2-(4-cyclopropyl-2-hydroxyphenyl)-2,3,4,5,5a,6,8,9-octahydro-7H-1,2,5,7-tetraazabenzo[cd]azulen-7-yl)prop-2-en-1-one], for which the AC50 in test [1] was less than 0.0015 µM; with HT29 cells (Homo sapiens, HT-29, 168 h), more than 3000 nM; in the test with HCT116 cells (Homo sapiens, HCT-116, 168 h) it was 1 to 100 nM; in test [2], 0.005 to 0.015 µM.

For the molecule `C=CC(=O)N1CCc2nn(-c3ccc(C(C)C)cc3)c3c2C(C1)N(C(=O)c1ccc(Br)c2ncn(CCOC)c12)CC3` (centres unmarked) [Compound 73, 1-(5-(4-bromo-1-(2-methoxyethyl)-1H-benzo[d]imidazole-7-carbonyl)-2-(4-isopropylphenyl)-2,3,4,5,5a,6,8,9-octahydro-7H-1,2,5,7-tetraazabenzo[cd]azulen-7-yl)prop-2-en-1-one], the AC50 in test [1] was 0.0015 to 0.005 µM; with HT29 cells (Homo sapiens, HT-29, 168 h), more than 3000 nM; with HCT116 cells (Homo sapiens, HCT-116, 168 h), 100 to 250 nM; in test [2], 0.015 to 0.055 µM.

With `C=CC(=O)N1CCc2nn(-c3ccc(CC(F)(F)F)cc3O)c3c2C(C1)N(C(=O)c1ccc(Br)c2[nH]cnc12)CC3` (centres unmarked) [Compound 2, 1-(5-(7-bromo-1H-benzo[d]imidazole-4-carbonyl)-2-(2-hydroxy-4-(2,2,2-trifluoroethyl)phenyl)-2,3,4,5,5a,6,8,9-octahydro-7H-1,2,5,7-tetraazabenzo[cd]azulen-7-yl)prop-2-en-1-one], the AC50 in test [1] is less than 0.0015 µM; with HT29 cells (Homo sapiens, HT-29, 168 h) it was more than 3000 nM; in the test on HCT116 cells (Homo sapiens, HCT-116, 168 h), 1 to 100 nM; in test [2] it was 0.005 to 0.015 µM.

Regarding `C=CC(=O)N1CC(F)Oc2nn(-c3ccc(C(C)C)cc3)c3c2C(C1)N(C(=O)c1ccc(Br)c2[nH]cnc12)CC3` (centres unmarked) [Compound 55, 1-(5-(7-bromo-1H-benzo[d]imidazole-4-carbonyl)-9-fluoro-2-(4-isopropylphenyl)-2,3,4,5,5a,6,8,9-octahydro-7H-10-oxa-1,2,5,7-tetraazacycloocta[cd]inden-7-yl)prop-2-en-1-one], the AC50 in test [1] was less than 0.0015 µM; in the test with HT29 cells it was more than 3000 nM; in the test with HCT116 cells, 100 to 250 nM; in test [2], 0.015 to 0.055 µM.

With `C=CC(=O)N1CCc2nn(-c3ccc(C4CCC4)cc3O)c3c2C(C1)N(C(=O)c1cnc(C(F)(F)F)cc1O)CC3` (centres unmarked) [Compound 149, 1-(2-(4-cyclobutyl-2-hydroxyphenyl)-5-(4-hydroxy-6-(trifluoromethyl)nicotinoyl)-2,3,4,5,5a,6,8,9-octahydro-7H-1,2,5,7-tetraazabenzo[cd]azulen-7-yl)prop-2-en-1-one], the AC50 is less than 0.0015 µM in test [1]; more than 3000 nM with HT29 cells (Homo sapiens, HT-29, 168 h); 250 to 500 nM with HCT116 cells (Homo sapiens, HCT-116, 168 h); 0.005 to 0.015 µM in test [2].

For the molecule `C=CC(=O)N1CCc2nn(-c3ccc(C4CC4)cc3O)c3c2C(C1)N(C(=O)c1ccc(Br)c2[nH]cnc12)CC3` (centres unmarked) [Compound 5, 1-(5-(7-bromo-1H-benzo[d]imidazole-4-carbonyl)-2-(4-cyclopropyl-2-hydroxyphenyl)-2,3,4,5,5a,6,8,9-octahydro-7H-1,2,5,7-tetraazabenzo[cd]azulen-7-yl)prop-2-en-1-one], the AC50 in test [1] is less than 0.0015 µM; in the test with HT29 cells (Homo sapiens, HT-29, 168 h), more than 3000 nM; in the test with HCT116 cells (Homo sapiens, HCT-116, 168 h) it was 1 to 100 nM; in test [2], 0.005 to 0.015 µM.

For the molecule `C=CC(=O)N1CCc2nn(Cc3ccccc3)c3c2C(C1)N(C(=O)c1cnc(C(F)(F)F)cc1N)CC3` (centres unmarked) [Compound 201, 1-(5-(4-amino-6-(trifluoromethyl)nicotinoyl)-2-benzyl-2,3,4,5,5a,6,8,9-octahydro-7H-1,2,5,7-tetraazabenzo[cd]azulen-7-yl)prop-2-en-1-one], the AC50 in test [1] was more than 0.055 µM; with HT29 cells (Homo sapiens, HT-29, 168 h), more than 3000 nM; in the test with HCT116 cells (Homo sapiens, HCT-116, 168 h) it was more than 1000 nM; in test [2], less than 0.0015 µM.

Turning to `C=CC(=O)N1CCc2nn(-c3ccc(C4CCC4)cc3O)c3c2C(C1)N(C(=O)c1ccc(Br)c2[nH]ncc12)CC3` (centres unmarked) [Compound 87, 1-(5-(7-bromo-1H-indazole-4-carbonyl)-2-(4-cyclobutyl-2-hydroxyphenyl)-2,3,4,5,5a,6,8,9-octahydro-7H-1,2,5,7-tetraazabenzo[cd]azulen-7-yl)prop-2-en-1-one], the AC50 is less than 0.0015 µM in test [1]; more than 3000 nM in the test on HT29 cells (Homo sapiens, HT-29, 168 h); 1 to 100 nM with HCT116 cells (Homo sapiens, HCT-116, 168 h); 0.0015 to 0.005 µM in test [2].

In the case of `C=CC(=O)N1CCc2nn(-c3ccc(C4CC4)cc3O)c3c2C(C1)N(C(=O)c1ccc(Cl)nc1N)CC3` (centres unmarked) [Compound 199, 1-(5-(2-amino-6-chloronicotinoyl)-2-(4-cyclopropyl-2-hydroxyphenyl)-2,3,4,5,5a,6,8,9-octahydro-7H-1,2,5,7-tetraazabenzo[cd]azulen-7-yl)prop-2-en-1-one], the AC50 was less than 0.0015 µM in test [1]; more than 3000 nM in the test with HT29 cells (Homo sapiens, HT-29, 168 h); 1 to 100 nM with HCT116 cells (Homo sapiens, HCT-116, 168 h); 0.005 to 0.015 µM in test [2].

`C=CC(=O)N1CCc2nn(-c3ccc(C(C)C)cc3)c3c2C(C1)N(C(=O)c1ccc(C(F)(F)F)c(=O)[nH]1)CC3` (centres unmarked) [Compound 58, 6-(7-acryloyl-2-(4-isopropylphenyl)-3,4,5,5a,6,7,8,9-octahydro-2H-1,2,5,7-tetraazabenzo[cd]azulene-5-carbonyl)-3-(trifluoromethyl)pyridin-2(1H)-one]: the AC50 is 0.0015 to 0.005 µM in test [1]; more than 3000 nM with HT29 cells (Homo sapiens, HT-29, 168 h); 100 to 250 nM in the test on HCT116 cells (Homo sapiens, HCT-116, 168 h); 0.015 to 0.055 µM in test [2].

Turning to `C=CC(=O)N1CCc2nn(-c3ccc(C4CCC4)c(O)c3)c3c2C(C1)N(C(=O)c1cnc(C(F)(F)F)c(O)c1)CC3` (centres unmarked) [Compound 91, 1-(2-(4-cyclobutyl-3-hydroxyphenyl)-5-(5-hydroxy-6-(trifluoromethyl)nicotinoyl)-2,3,4,5,5a,6,8,9-octahydro-7H-1,2,5,7-tetraazabenzo[cd]azulen-7-yl)prop-2-en-1-one], the AC50 is less than 0.0015 µM in test [1]; more than 3000 nM in the test with HT29 cells (Homo sapiens, HT-29, 168 h); 250 to 500 nM in the test with HCT116 cells (Homo sapiens, HCT-116, 168 h); 0.005 to 0.015 µM in test [2].

Consider `CS(=O)(=O)/C=C/CN1CCc2nn(-c3ccc(C4CC4)cc3O)c3c2C(C1)N(C(=O)c1cnc(C(F)(F)F)cc1N)CC3` (centres unmarked) [Compound 257, (4-amino-6-(trifluoromethyl)pyridin-3-yl)(2-(4-cyclopropyl-2-hydroxyphenyl)-7-(3-(methylsulfonyl)allyl)-3,4,6,7,8,9-hexahydro-2H-1,2,5,7-tetraazabenzo[cd]azulen-5(5aH)-yl)methanone], for which the AC50 is more than 0.055 µM in test [1]; more than 3000 nM in the test with HT29 cells (Homo sapiens, HT-29, 168 h); more than 1000 nM with HCT116 cells (Homo sapiens, HCT-116, 168 h); more than 0.055 µM in test [2].
